This passage reports Kd results from ChEMBL document CHEMBL3991601, “The target landscape of clinical kinase drugs” (Science, 2017).

The target in experiment [1] is T1, Probable ATP-dependent RNA helicase DDX6 (Homo sapiens, UniProt P26196).
T1 sequence (P26196 whole entry): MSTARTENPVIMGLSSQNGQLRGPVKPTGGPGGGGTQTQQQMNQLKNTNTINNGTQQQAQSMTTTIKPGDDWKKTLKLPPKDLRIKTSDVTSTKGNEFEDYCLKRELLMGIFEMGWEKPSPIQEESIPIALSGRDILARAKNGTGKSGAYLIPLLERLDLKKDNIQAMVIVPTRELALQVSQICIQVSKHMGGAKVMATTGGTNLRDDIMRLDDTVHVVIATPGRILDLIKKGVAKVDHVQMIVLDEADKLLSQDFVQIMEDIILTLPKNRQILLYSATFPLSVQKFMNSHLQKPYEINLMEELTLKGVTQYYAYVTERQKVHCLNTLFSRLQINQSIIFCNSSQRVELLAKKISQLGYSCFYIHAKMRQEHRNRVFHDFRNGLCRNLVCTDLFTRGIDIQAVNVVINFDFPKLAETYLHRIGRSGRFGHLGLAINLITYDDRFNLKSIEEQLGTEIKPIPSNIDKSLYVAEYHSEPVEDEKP

Experiment [2] has as its target Eukaryotic translation initiation factor 2-alpha kinase 1 (Homo sapiens, UniProt Q9BQI3).
For experiment [3], the target named is Ribosomal protein S6 kinase alpha-1 (Homo sapiens, UniProt Q15418).
Experiment [4] deals with cAMP-dependent protein kinase type II-alpha regulatory subunit (Homo sapiens, UniProt P13861).
Experiment [5] addresses T2, Activin receptor type-1 (Homo sapiens, UniProt Q04771).
T2 sequence (Q04771 whole entry): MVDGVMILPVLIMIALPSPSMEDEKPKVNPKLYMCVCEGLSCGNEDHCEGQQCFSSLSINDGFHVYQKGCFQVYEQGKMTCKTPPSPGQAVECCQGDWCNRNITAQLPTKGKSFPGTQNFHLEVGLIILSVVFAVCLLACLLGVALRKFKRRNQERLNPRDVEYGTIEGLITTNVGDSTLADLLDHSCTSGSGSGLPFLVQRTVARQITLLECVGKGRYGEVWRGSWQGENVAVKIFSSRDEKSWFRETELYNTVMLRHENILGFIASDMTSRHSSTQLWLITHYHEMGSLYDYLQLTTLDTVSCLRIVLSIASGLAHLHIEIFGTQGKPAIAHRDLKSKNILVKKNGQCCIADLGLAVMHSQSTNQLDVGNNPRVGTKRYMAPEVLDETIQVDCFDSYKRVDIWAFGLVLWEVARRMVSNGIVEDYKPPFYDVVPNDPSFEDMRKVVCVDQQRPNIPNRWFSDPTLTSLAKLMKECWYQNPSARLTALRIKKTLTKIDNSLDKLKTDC

The target of experiment [6] is T3, Mitogen-activated protein kinase 15 (Homo sapiens, UniProt Q8TD08).
T3 sequence (Q8TD08 whole entry): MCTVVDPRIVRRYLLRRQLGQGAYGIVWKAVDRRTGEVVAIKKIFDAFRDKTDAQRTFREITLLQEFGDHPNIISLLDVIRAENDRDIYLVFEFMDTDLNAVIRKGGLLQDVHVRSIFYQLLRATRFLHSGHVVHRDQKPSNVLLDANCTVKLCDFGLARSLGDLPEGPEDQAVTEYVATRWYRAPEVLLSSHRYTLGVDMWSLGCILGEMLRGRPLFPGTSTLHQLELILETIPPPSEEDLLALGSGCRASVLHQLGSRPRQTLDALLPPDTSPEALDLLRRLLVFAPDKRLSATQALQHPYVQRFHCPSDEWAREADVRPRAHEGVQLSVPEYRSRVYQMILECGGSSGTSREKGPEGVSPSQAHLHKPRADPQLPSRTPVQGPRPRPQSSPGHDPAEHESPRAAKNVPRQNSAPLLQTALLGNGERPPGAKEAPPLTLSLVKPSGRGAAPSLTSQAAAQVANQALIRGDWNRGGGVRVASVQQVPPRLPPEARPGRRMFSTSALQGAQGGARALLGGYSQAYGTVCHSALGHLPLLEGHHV

The target in experiment [7] is Bone morphogenetic protein receptor type-1B (Homo sapiens, UniProt O00238).
In experiment [8] the target is ATP-dependent RNA helicase DDX3X (Homo sapiens, UniProt O00571).
In experiment [9] the target is Protein kinase C delta type (Homo sapiens, UniProt Q05655).
Experiment [10] has as its target Tyrosine-protein kinase Yes (Homo sapiens, UniProt P07947).

Calls of active or inactive are those of the source. For most assays here, no stated cut-off is given here; in the data, actives have a measured Kd and inactives only a lower limit.

By Kd is commonly meant the constant that tells how readily two partners part at equilibrium.

Protein kinase C delta type, sequence (Q05655 whole entry): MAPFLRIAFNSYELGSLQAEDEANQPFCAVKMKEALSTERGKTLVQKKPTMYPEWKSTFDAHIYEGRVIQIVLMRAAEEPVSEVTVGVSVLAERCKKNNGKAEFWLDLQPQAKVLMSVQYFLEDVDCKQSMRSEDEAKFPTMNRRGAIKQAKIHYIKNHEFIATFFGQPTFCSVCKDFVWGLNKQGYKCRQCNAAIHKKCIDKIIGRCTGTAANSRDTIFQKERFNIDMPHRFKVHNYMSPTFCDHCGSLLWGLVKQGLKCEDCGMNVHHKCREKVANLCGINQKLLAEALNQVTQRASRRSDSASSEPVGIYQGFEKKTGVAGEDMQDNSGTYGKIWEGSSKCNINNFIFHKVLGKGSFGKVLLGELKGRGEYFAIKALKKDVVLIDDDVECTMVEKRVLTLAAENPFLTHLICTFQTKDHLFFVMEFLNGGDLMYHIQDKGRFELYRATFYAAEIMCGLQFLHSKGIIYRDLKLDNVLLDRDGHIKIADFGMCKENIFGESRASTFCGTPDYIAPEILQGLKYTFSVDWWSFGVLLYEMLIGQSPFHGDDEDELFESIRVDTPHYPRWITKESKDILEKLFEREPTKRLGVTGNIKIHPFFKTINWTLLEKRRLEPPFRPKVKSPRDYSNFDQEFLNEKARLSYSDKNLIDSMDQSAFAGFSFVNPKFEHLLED
cAMP-dependent protein kinase type II-alpha regulatory subunit, sequence (P13861 whole entry): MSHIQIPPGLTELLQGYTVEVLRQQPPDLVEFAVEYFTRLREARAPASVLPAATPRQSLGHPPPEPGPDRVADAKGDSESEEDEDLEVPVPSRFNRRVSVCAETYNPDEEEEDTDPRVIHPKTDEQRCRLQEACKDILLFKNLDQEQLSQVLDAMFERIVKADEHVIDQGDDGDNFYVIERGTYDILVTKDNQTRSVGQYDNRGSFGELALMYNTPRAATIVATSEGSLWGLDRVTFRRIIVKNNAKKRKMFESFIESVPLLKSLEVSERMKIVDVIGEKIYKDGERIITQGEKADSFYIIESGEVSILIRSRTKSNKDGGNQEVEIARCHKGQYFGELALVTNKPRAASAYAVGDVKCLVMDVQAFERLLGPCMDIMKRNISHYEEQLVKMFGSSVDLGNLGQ
Bone morphogenetic protein receptor type-1B, sequence (O00238 whole entry): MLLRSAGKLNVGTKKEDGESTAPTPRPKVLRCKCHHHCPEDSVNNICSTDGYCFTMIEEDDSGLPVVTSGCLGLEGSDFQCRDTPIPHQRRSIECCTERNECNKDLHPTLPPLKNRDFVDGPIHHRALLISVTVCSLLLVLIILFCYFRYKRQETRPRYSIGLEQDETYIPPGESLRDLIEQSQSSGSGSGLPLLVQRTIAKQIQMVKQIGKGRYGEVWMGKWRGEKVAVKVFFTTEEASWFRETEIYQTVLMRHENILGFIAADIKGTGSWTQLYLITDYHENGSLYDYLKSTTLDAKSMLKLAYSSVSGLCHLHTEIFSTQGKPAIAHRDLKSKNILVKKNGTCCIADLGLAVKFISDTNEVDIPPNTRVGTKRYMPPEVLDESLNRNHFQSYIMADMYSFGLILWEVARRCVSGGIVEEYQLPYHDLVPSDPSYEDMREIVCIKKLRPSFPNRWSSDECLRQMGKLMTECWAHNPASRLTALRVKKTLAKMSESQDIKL
Tyrosine-protein kinase Yes, sequence (P07947 whole entry): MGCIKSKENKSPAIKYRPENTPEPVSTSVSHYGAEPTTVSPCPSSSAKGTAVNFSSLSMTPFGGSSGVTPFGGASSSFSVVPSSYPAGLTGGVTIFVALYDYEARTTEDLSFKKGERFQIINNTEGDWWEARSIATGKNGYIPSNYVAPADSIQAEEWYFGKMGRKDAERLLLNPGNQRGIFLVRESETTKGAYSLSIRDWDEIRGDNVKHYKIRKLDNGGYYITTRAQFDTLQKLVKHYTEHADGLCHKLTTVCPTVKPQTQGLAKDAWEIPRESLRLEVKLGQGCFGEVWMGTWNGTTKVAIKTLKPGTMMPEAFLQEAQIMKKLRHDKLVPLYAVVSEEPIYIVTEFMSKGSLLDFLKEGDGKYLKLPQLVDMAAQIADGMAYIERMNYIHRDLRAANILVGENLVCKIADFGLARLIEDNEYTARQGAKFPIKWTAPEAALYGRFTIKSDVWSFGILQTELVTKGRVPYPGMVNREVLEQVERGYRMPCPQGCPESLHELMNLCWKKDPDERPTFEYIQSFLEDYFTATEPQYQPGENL
ATP-dependent RNA helicase DDX3X, sequence (O00571 whole entry): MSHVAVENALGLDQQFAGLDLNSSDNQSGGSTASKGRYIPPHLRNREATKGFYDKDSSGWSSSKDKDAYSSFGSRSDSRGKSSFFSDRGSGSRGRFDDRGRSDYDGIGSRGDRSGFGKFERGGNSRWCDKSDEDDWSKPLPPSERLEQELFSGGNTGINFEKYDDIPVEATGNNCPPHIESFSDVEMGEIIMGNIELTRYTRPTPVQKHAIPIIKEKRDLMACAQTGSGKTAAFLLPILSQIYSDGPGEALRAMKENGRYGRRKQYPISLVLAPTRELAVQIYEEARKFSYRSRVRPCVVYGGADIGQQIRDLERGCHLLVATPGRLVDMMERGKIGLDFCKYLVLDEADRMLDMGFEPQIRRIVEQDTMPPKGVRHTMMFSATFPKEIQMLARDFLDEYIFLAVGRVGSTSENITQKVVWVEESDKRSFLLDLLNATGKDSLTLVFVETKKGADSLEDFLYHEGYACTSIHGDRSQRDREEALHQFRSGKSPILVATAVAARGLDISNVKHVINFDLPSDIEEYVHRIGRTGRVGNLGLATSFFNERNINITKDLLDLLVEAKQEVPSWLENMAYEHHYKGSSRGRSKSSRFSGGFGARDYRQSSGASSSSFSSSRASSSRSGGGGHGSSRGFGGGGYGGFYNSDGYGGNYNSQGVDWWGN
Eukaryotic translation initiation factor 2-alpha kinase 1, sequence (Q9BQI3 whole entry): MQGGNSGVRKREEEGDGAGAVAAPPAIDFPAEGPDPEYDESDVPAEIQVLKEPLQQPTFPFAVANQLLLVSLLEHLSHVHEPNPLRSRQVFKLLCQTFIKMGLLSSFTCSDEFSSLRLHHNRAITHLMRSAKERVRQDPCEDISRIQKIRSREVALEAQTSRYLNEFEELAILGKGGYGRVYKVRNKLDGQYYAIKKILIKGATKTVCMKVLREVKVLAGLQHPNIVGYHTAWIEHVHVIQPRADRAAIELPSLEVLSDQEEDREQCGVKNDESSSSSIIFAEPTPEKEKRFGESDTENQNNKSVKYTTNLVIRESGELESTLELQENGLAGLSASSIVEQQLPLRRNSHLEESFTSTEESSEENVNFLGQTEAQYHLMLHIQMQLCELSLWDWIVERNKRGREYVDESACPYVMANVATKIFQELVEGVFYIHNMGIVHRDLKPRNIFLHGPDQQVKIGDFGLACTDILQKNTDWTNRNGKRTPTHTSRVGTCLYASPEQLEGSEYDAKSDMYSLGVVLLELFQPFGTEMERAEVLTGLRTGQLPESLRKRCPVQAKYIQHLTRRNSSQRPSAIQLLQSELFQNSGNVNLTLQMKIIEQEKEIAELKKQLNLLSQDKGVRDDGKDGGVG
Ribosomal protein S6 kinase alpha-1, sequence (Q15418 whole entry): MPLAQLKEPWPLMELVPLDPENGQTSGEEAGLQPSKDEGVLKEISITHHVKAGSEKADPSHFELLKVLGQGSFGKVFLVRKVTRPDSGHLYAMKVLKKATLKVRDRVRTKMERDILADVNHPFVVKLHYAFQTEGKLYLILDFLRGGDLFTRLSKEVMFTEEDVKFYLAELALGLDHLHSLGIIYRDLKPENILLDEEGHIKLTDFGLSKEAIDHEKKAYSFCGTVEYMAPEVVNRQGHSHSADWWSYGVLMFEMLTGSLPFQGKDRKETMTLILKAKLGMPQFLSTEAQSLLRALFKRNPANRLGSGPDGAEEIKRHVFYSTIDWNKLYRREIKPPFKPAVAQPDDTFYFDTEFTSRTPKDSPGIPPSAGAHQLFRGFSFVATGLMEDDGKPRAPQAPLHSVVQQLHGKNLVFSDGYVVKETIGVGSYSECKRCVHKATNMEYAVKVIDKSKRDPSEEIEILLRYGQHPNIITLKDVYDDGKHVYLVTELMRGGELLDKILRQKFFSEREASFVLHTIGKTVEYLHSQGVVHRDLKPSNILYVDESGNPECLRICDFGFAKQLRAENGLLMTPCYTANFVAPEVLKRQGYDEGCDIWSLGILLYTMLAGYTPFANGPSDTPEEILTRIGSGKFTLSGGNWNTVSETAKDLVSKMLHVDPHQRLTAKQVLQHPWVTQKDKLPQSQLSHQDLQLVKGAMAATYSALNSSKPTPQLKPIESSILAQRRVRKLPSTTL

For `CNC(=O)c1cc(Oc2ccc(NC(=O)Nc3ccc(Cl)c(C(F)(F)F)c3)c(F)c2)ccn1` [REGORAFENIB], the Kd in experiment [1], in experiment [2], in experiment [3], in experiment [4], in experiment [5] and in experiment [6] was > 30 µM (inactive) in each case. Further, the Kd in experiment [7], in experiment [8], in [9] and in [10] was > 30 µM (inactive) each time.
For `CCCS(=O)(=O)Nc1ccc(F)c(C(=O)c2c[nH]c3ncc(-c4ccc(Cl)cc4)cc23)c1F` [VEMURAFENIB], the Kd in experiment [1], in experiment [2], in [3], in experiment [4], in experiment [5] and in experiment [6] was > 30 µM (inactive) throughout. The Kd in experiment [7], in experiment [8], in experiment [9] and in experiment [10] was > 30 µM (inactive) throughout.
Regarding `N[C@@H]1CCCN(c2c(/C=C3\SC(=O)NC3=O)cccc2-c2ccccc2)C1`, the Kd in experiment [1], in experiment [2], in [3], in [4], in experiment [5] and in experiment [6] was > 30 µM (inactive) throughout. The Kd in [7], in [8], in experiment [9] and in experiment [10] was > 30 µM (inactive) in each case.
In the case of `O=C(O)[C@]1(Cc2cccc(Nc3nccs3)n2)CC[C@@H](Oc2cccc(Cl)c2F)CC1` [MK-5108], the Kd is > 30 µM (inactive) in experiment [1]; > 30 µM (inactive) in [2]; > 30 µM (inactive) in experiment [3]; > 30 µM (inactive) in experiment [4]; 0.121 µM (active) in experiment [5]; > 30 µM (inactive) in experiment [6]. Besides, the Kd in experiment [7], in experiment [8], in experiment [9] and in [10] was > 30 µM (inactive) in each case.
As for `COc1cc(OC)c(/C=C/S(=O)(=O)Cc2ccc(OC)c(NCC(=O)O)c2)c(OC)c1` [RIGOSERTIB], the Kd in experiment [1], in experiment [2], in experiment [3], in experiment [4], in [5] and in experiment [6] was > 30 µM (inactive) in each case. For the same molecule, the Kd in [7], in [8], in [9] and in experiment [10] was > 30 µM (inactive) each time.
As to `CC[C@@H]1C(=O)N(C)c2cnc(Nc3ccc(C(=O)N[C@H]4CC[C@H](N5CCN(CC6CC6)CC5)CC4)cc3OC)nc2N1C(C)C` [VOLASERTIB], the Kd in [1], in experiment [2], in [3], in experiment [4], in experiment [5] and in experiment [6] was > 30 µM (inactive) in each case. For the same molecule, the Kd in [7], in experiment [8], in experiment [9] and in experiment [10] was > 30 µM (inactive) throughout.
For `Cc1cc(-c2cc(O)ccc2Cl)cc2nnc(Nc3ccc(OCCN4CCCC4)cc3)nc12`, the Kd in experiment [1], in experiment [2], in experiment [3], in [4], in experiment [5] and in experiment [6] was > 30 µM (inactive) in each case. Also, the Kd in [7] is > 30 µM (inactive); in experiment [8] it was > 30 µM (inactive); in experiment [9] it was > 30 µM (inactive); in [10], 0.001 µM (active).
For `CCn1c(=O)c(-c2cc[nH]n2)cc2c(C)nc(N)nc21` [VOXTALISIB], the Kd in experiment [1], in experiment [2], in [3], in experiment [4], in experiment [5] and in [6] was > 30 µM (inactive) each time. Further, the Kd in [7], in experiment [8], in experiment [9] and in experiment [10] was > 30 µM (inactive) each time.
As for `Cc1cc2c(F)c(Oc3ncnn4cc(OC[C@@H](C)OC(=O)[C@H](C)N)c(C)c34)ccc2[nH]1` [BRIVANIB ALANINATE], the Kd in experiment [1], in experiment [2], in experiment [3], in experiment [4], in experiment [5] and in [6] was > 30 µM (inactive) in each case. The Kd in experiment [7], in experiment [8], in experiment [9] and in experiment [10] was > 30 µM (inactive) in each case.
Consider `CN1CCC(CNc2ccc3ncc(-c4cccc(OC(F)(F)F)c4)n3n2)CC1` [SGI-1776], for which the Kd was > 30 µM (inactive) in experiment [1]; > 30 µM (inactive) in experiment [2]; > 30 µM (inactive) in [3]; > 30 µM (inactive) in experiment [4]; 0.458 µM (active) in experiment [5]; > 30 µM (inactive) in experiment [6]. Also, the Kd in [7], in experiment [8], in experiment [9] and in [10] was > 30 µM (inactive) each time.
For the molecule `CC[C@H](Nc1ncnc2[nH]cnc12)c1nc2cccc(F)c2c(=O)n1-c1ccccc1` [IDELALISIB], the Kd in experiment [1], in experiment [2], in [3], in experiment [4], in [5] and in experiment [6] was > 30 µM (inactive) throughout. The Kd in [7], in [8], in [9] and in experiment [10] was > 30 µM (inactive) each time.
On to `COC(=O)N[C@@H](C)CNc1nccc(-c2cn(C(C)C)nc2-c2cc(Cl)cc(NS(C)(=O)=O)c2F)n1` [ENCORAFENIB], for which the Kd in experiment [1], in experiment [2], in [3], in experiment [4], in experiment [5] and in [6] was > 30 µM (inactive) throughout. Further, the Kd in experiment [7], in experiment [8], in experiment [9] and in experiment [10] was > 30 µM (inactive) throughout.
Regarding `O=c1sn(-c2cccc3ccccc23)c(=O)n1Cc1ccccc1` [TIDEGLUSIB], the Kd in experiment [1], in experiment [2], in [3], in experiment [4], in experiment [5] and in [6] was > 30 µM (inactive) throughout. The Kd in experiment [7], in experiment [8], in experiment [9] and in [10] was > 30 µM (inactive) throughout.
